# “Also recorded” adds a separate entry of the source. Where no end group is shown, it is not given here.
# System: KSm 5 monoclonal autoantibody
# Assay: Binding of monoclonal antibody KSm 5 to Sm B/B' octapeptides
# Set-up: species or system MRL lpr/lpr mouse
# Conditions: hybridoma supernatant
# Excerpt: (§1) Autoantibodies binding the Sm B and B′ peptides (B/B′) are commonly associated with systemic lupus erythernatosus in man and in MRL lpr/lpr mice. KSm 3 and KSm 5 were derived from an unmanipulated MRL lpr/lpr mouse using hybridoma monoclonal antibody technology. Supernatants containing KSm 3 and KSm 5 monoclonal antibodies were collected from cloned murine hybridoma cell lines in RPMI 1640 with 10% fetal bovine serum, glutamine, penicillin and streptomycin. These monoclonal autoantibodies are both of the IgG2a subclass. The linear antigenic regions of these two anti-Sm B/B′ murine monoclonal autoantibodies have been mapped using overlapping octapeptides. Unique epitopes are identified by each monoclonal. Monoclonal antibody KSm 5 recognizes the peptide, PPPGMRPP (amino acids 4-11 of SEQ ID NO:14), which is repeated three times in the Sm B polypeptide. […] Both of these regions of Sm B/B′ are major areas of antigericity for human anti-Sm autoantibodies. […] When the arginine in the sixth position PPPGMRPP (amino acids 4-11 of SEQ ID NO:14) is substituted KSm 5 binding is found in an unexpected subset of octapeptides. […] In contrast, binding of KSm 3 to PPPGIRPP (SEQ ID NO:122) is abolished when the sixth position arginine is substituted by any other amino acid. These two murine autoantibodies bind distinct linear epitopes of Sm B/B′ which are also bound by human anti-Sm B/B′ autoantibodies. […]
row,Substance,binding by KSm 5 in words
1,PPPGMRPP (listed as Homo sapiens),recognizes

# System: affinity purified anti-La/SSB antibodies
# Assay: Pin ELISA of La/SSB octapeptides with affinity purified anti-La/SSB antibodies
# Format: binding, human
# Conditions: affinity enriched preparation, patient E11; peak or average reactivities
# Procedure: Solid Phase Anti-peptide Assay. All steps were carried out by immersing the pin blocks into microtiter plate wells. Pins were incubated in blocking buffer (1% bovine serum albumin (BSA) in phosphate buffered saline (PBS), pH 7.2) for 1 h at room temperature and then in 1:100 dilutions of sera in diluent (1% BSA and 0.05% Tween in PBS) overnight at […] in humidified containers. Pin blocks were washed four times with wash buffer (0.05% Tween in PBS) for 10 min with agitation and then immersed for 1 h at room temperature in affinity purified goat anti-human-chain specific antibody conjugated to alkaline phosphatase (Sigma Chemical Co., St. Louis, Mo.) diluted 1:1000 in diluent. After washing as above, pins were incubated in para-nitrophenyl phosphate solution at 37° C. for 2 h. Color development was read at 410 nm on a DYNATECH® MR5000 ELISA plate reader.
# Samples. Sera from five normal, healthy donors and ten patients with primary SS and/or SLE were screened by pin ELISA for antibodies binding to the La/SSB octapeptides. Eight of these ten patients had both anti-Ro/SSA and anti-La/SSB precipitin forming autoantibodies, and seven of these eight had borne children with congenital heart block (CCHB). Two patients had antibodies to Ro/SSA alone. Anti-La/SSB antibodies were affinity purified from the sera of two patients on La/SSB cross-linked immunosorbents as described by Horsfall, et al., J. Immunol. Meth. 104:43 (1987).
# Anti-La/SSB antibodies from two patients have been affinity purified on La/SSB cross-linked immunosorbents. […] The affinity enriched preperation binds 17 of the 18 previously identified epitopes, the exception being epitope 17 (octapeptide 379); however, this preperation does bind octapeptides adjacent to epitope 17, particularly octapeptides 380 and 382. Those putative epitopes in which the binding is most enriched include epitopes 2, 3, 6, 9, 10, 12, 13 and 15. These same epitopes appear enriched whether peak or average reactivities for each putative epitope are compared. Essentially the same results have been obtained from an affinity enriched preparation of the anti-La/SSB from a second patient.
row,Substance,enrichment of binding relative to the serum
1,GEIKWIDFVRGAK [epitope 6],most enriched
2,TDFNVIVEA [epitope 12],most enriched
3,ICHQIEYYFGDFNLPRDKFLK [epitope 2],most enriched
4,WVPLEIMIKFNR [epitope 3],most enriched
5,REDLHILF [epitope 15],most enriched
6,IFVVFDSIE [epitope 9],most enriched
7,EGIILFKEKAK [epitope 13],most enriched
8,KETDLLILFKDDYFA [epitope 10],most enriched

# Same assay, conditions: preparation from patient E11
row,Substance,binding by affinity enriched anti-La/SSB preparation
1,"octapeptide 380: La/SSB octapeptide adjacent to epitope 17, starting at amino acid 380 (GPVKRARE; UniProt P05455 380-387, looked up, fragment)",does bind
2,"octapeptide 382: La/SSB octapeptide adjacent to epitope 17, starting at amino acid 382 (VKRAREET; UniProt P05455 382-389, looked up, fragment)",does bind

# System: sera that contain an anti-Sm precipitin in the absence of an anti-nRNP precipitin
# Assay: Solid phase antipeptide assay with sera having anti-Sm precipitin alone
# Format: binding, human
# Conditions: anti-Sm precipitin without anti-nRNP precipitin
# Procedure: Solid phase antipeptide assay. Wash steps and incubations were carried out in sealed plastic containers. Other assay steps were performed by lowering the pins into microliter plate wells. First, pins were blocked with 3% low-fat milk in PBS for 1 h at room temperature. Pins were then incubated in 1/100 dilutions of sera in 3% milk/PBS with 0.05% TWEEN® (surfactant) overnight at 4° C. in humidified sealed containers. The pin blocks were then washed four times with PBS with 0.05% TWEEN® (surfactant) for 10 min each with vigorous agitation. Next, each pin was incubated with anti-human gamma-chain specific IgG raised in a goat, affinity purified and conjugated to alkaline phosphatase (Jackson Immunoresearch Laboratories, West Grove, Pa.) at a {fraction (1/10,000)} dilution. Paranitrophenyl phosphate disodium was used as a substrate for alkaline phosphatase and plates were read at 405 nm with a MICROELISA Reader (Dynatech, Alexandria, Va.). Results for each plate were then standardized by comparison with positive control pins. The same control pins were used for all plates and were allowed to develop to a specific OD with a known concentration of a standard control sera.
# All antigenic sites determined in this study require a positively charged amino acid. The size of these sites varies from two nonconsecutive basic amino acids to an entire octapeptide. […]
row,Substance,binding in words
1,PPPGMRPP (listed as Homo sapiens),does not appear to be bound

# System: KSm 3 monoclonal autoantibody
# Assay: Binding of monoclonal antibody KSm 3 to Sm B/B' octapeptides
# Set-up: species or system MRL lpr/lpr mouse
# Conditions: hybridoma supernatant
# Excerpt: as §1
row,Substance,binding by KSm 3 in words
1,PGIRGPPP (homo sapien),binds best
2,PPPGIRGP (listed as Homo sapiens),binds best

# System: anti-Sm and anti-nRNP precipitin sera (IgG)
# Assay: Solid phase antipeptide assay of Sm B/B' and related peptides with Sm, nRNP precipitin positive sera
# Format: binding, human
# Conditions: deletion peptides, six patient sera
# Procedure: Sera. Human sera form patients who satisfied the classification criteria of the American Rheumatism Association for SLE or normal age-matched, sex-matched controls were used in this study. Fifteen sera from lupus patients were tested. Ten of these sera tested contained antibodies that formed strong precipitin lines with both Sm and nRNP, three formed precipitin lines with only nRNP, one formed a precipitin line with Ro/SSA and La/SSB, and one formed a precipitin line with only Ro/SSA. All of these serologic findings were confirmed by appropriate molecular weight bands for the reported antigen being bound in immunoblot by the respective sera.
# Solid-phase noncleavable peptide synthesis. The published sequence of Sm B/B′ was used to construct all the possible overlapping octapeptides. The amino acids used for peptide synthesis had Fmoc protected primary amino groups and t-butyl (or other appropriate group) protected side chains. Overlapping octapeptides were simultaneously synthesized at the rounded ends of radiation derivatized polyethylene pins that were arranged in the format of a 96 well microliter plate (Cambridge Research Biochemicals. Cambridge, UK and Coselco Mimotopes Pty Ltd. Victoria, Australia) The active esters of Fmoc, t-butyl amino acid solutions (30 mM) were solubilized in DMF that had […] added to a final concentration of 30 mM and dispensed into the wells of a microliter plate. Each amino acid was added as determined by the 240 amino acids of the Raji Sm B/B′ sequence. After 18 h of incubation, the pins were washed in DMF for 5 min. four times at 2 min each in methanol, and once again in DMF for 5 min. The Fmoc protecting groups were then removed from the newly added amino acid by a 20% piperidine/DMF bath for 30 min. These steps were repeated until all eight amino acids were added. After the final amino acid, the amino terminal groups of each peptide was acetylated by incubating the pins in a 5:2:1 (v/v/v) mixture of DMF:acetic anhydride: triethylamine for 90 min at room temperature. After this step the pins were again washed in DMF for 2 min, four times at 2 min each in methanol, and then air-dried for 10 min. Finally, side chain amino protecting groups were removed by […] (v/w/v) of trifluoracetic acid:phenol:ethanedithiol. Wash steps included 2 min in methylene chloride, two times at 5 min each in 5% […]/methylene chloride, and a final methylene chloride wash for 5 min. After drying for 10 min., pins were placed in distilled water for 2 min., transferred to a methanol bath for 18 h. and dried under vacuum for 18 h. This procedure was repeated to synthesize another set of the carboxyl-terminal 36 octapeptides to allow substantiation of the previous data. In addition other octapeptides, including the amino acid changes seen in the vanDam/Ohosone Proc. Natl. Acad. Sci. USA 86:4249 (1989) sequences, were also synthesized. Selected substitution and deletion sequences, along with similar sequences from other proteins, were also constructed. Control pins composed of amino acids in a random sequence were prepared that were not present in any of the Sm or nRNP antigen sequences. In addition, positive control pins were synthesized from a known reactive sequence of the La/SSB peptide.
# Solid phase antipeptide assay. Wash steps and incubations were carried out in sealed plastic containers. Other assay steps were performed by lowering the pins into microliter plate wells. First, pins were blocked with 3% low-fat milk in PBS for 1 h at room temperature. Pins were then incubated in 1/100 dilutions of sera in 3% milk/PBS with 0.05% TWEEN® (surfactant) overnight at 4° C. in humidified sealed containers. The pin blocks were then washed four times with PBS with 0.05% TWEEN® (surfactant) for 10 min each with vigorous agitation. […]
row,Substance,reactivity to the PPPGMRPP motif destroyed
1,PPPGM (homo sapien; (3)..(10) Binding site),Greater than 60%

# Same assay, conditions: sera 1/100, Sm and nRNP precipitin positive SLE patients
row,Substance,antigenicity / reactivity in words
1,PPP,no solely poly-proline sequence tested
2,PKNAKQPE (homo sapien) [octapeptide 53],Binding is lost
3,PAPGMRPP (homo sapien),as antigenic as PPPGMRPP
4,PPPGMRP (PPPGMXP; homo sapien; (3)..(10) Binding site),does not appear to significantly alter binding
5,PPPGMRPP (listed as Homo sapiens),especially antigenic; also recorded: consistently the most immunoreactive; also recorded: similarly antigenic in each; also recorded: major linear antigenic epitope
6,PPPGMIPP (homo sapien),not antigenic; also recorded: does not bind
7,DCDEFRKI (homo sapien) [octapeptide 44],Binding is lost
8,PPPP (homo sapien),no solely poly-proline sequence tested
9,PPPGIRGP (listed as Homo sapiens),"bound by all the Sm, nRNP sera tested"
10,PPPPP (homo sapien),no solely poly-proline sequence tested
11,PPPGMR (not fully specified),does not appear to significantly alter binding

# Same assay, conditions: sera 1/100, Sm and nRNP precipitin positive SLE patients; listed as nRNP A
row,Substance,antigenicity / reactivity in words
1,PPPGMIPP (homo sapien),relatively no reactivity

# Same assay, conditions: substituted or homologous octapeptides, six patient sera
row,Substance,original reactivity (binding) of PPPGMRPP retained
1,PAPGMRPP (homo sapien),over 90%

# System: antibody of patient serum
# Assay: Solid phase assay of nRNP (70 kD, A, C) octapeptides with patient sera
# Format: binding, human
# Conditions: nRNP A sequences marked (*)
# Excerpt: The sequence of the 70 kD nuclear ribonucleoprotein (nRNP) is reported by R. A. Spritz, et al., in Nucleic Acids Res. 24: 10373-10391 (1987), the teachings of which are incorporated herein. The data analysis is done the same as for the Ro/SSA and La/SSB antigens. Each sequence identified represents the binding of antibody to octapetides that exceed arbitrary criteria in the solid phase assay. The identified antigenic regions are more than two standard deviations above the mean of normal sera and are bound by more than half of the patients. For the binding to the 70 kD peptide, the threshold in the assay is A410 of 0.380. The numbers in parentheses are the sequence positions of the first amino acid in the first octapeptide that exceeds the threshold. Each identified sequence is composed of one or more octapeptides. The number of octapeptides in each sequence is the length of the sequence […]. The underlined part of the sequence is the octapeptide that is bound most by the patient serum. In some cases, another octapeptide is essentially equivalent but not underlined.
row,Substance,proportion of sera binding
1,ERDRKREKRKPKS,bound by a subset of the sera tested
2,LVSRSLKMRQAF,bound by a subset of the sera tested
